In US20250314644A1, “METHODS COMPRISING DETECTION OF ADP-HEPTOSE” (CHILDREN'S HOSPITAL MEDICAL CENTER, priority 2023, published 2025):

Tested on: Dnmt3a^WT cells
Assay: RNA-sequencing of HSPCs treated in vitro with ADP-heptose or H2O for 90 minutes
Type: cell-based, mouse

Nc1ncnc2c1ncn2[C@@H]1O[C@H](COP(=O)(O)OP(=O)(O)O[C@@H]2O[C@H]([C@H](O)CO)[C@@H](O)[C@H](O)[C@@H]2O)[C@@H](O)[C@H]1O [ADP-heptose, ADP-D-glycero-β-D-manno-heptose]
logFC 2900005J15Rik (Dnmt3a^WT cells, vs H2O): 0.6052
logFC AI607873 (Dnmt3a^WT cells, vs H2O): 0.6683
logFC Abca1 (Dnmt3a^WT cells, vs H2O): −0.707
logFC Acsbg1 (Dnmt3a^WT cells, vs H2O): 0.5944
logFC Adgrg6 (Dnmt3a^WT cells, vs H2O): −0.645
logFC Akap12 (Dnmt3a^WT cells, vs H2O): −1.955
logFC Akr1c18 (Dnmt3a^WT cells, vs H2O): 0.7051
logFC Alpk2 (Dnmt3a^WT cells, vs H2O): 1.196
logFC Aoc1 (Dnmt3a^WT cells, vs H2O): 2.048
logFC Arg1 (Dnmt3a^WT cells, vs H2O): 0.7872
logFC Arl5c (Dnmt3a^WT cells, vs H2O): −0.704
logFC Arntl (Dnmt3a^WT cells, vs H2O): −0.87
logFC Asb2 (Dnmt3a^WT cells, vs H2O): 1.407
logFC Atoh8 (Dnmt3a^WT cells, vs H2O): 0.7783
logFC Azin2 (Dnmt3a^WT cells, vs H2O): 0.6183
logFC B3galt5 (Dnmt3a^WT cells, vs H2O): 0.9015
logFC Bach2 (Dnmt3a^WT cells, vs H2O): −0.675
logFC Bcl2a1b (Dnmt3a^WT cells, vs H2O): 0.925
logFC Bcl2a1d (Dnmt3a^WT cells, vs H2O): 0.6551
logFC Bhlha15 (Dnmt3a^WT cells, vs H2O): −0.596
logFC Blk (Dnmt3a^WT cells, vs H2O): −1.578
logFC Blnk (Dnmt3a^WT cells, vs H2O): −1.446
logFC Cacna1f (Dnmt3a^WT cells, vs H2O): 0.7515
logFC Ccdc63 (Dnmt3a^WT cells, vs H2O): −0.697
logFC Ccdc85c (Dnmt3a^WT cells, vs H2O): 0.7217
logFC Ccl5 (Dnmt3a^WT cells, vs H2O): 1.104
logFC Ccl17 (Dnmt3a^WT cells, vs H2O): 2.045
logFC Ccl22 (Dnmt3a^WT cells, vs H2O): 0.7001
logFC Ccl24 (Dnmt3a^WT cells, vs H2O): 1.365
logFC Cd19 (Dnmt3a^WT cells, vs H2O): −1.847
logFC Cd40 (Dnmt3a^WT cells, vs H2O): 0.6226
logFC Cd74 (Dnmt3a^WT cells, vs H2O): 0.82
logFC Cd79a (Dnmt3a^WT cells, vs H2O): −1.818
logFC Cd83 (Dnmt3a^WT cells, vs H2O): 1.204
logFC Cecr2 (Dnmt3a^WT cells, vs H2O): −1.929
logFC Chst3 (Dnmt3a^WT cells, vs H2O): −1.597
logFC Cmpk2 (Dnmt3a^WT cells, vs H2O): 0.7001
logFC Cplx2 (Dnmt3a^WT cells, vs H2O): −1.36
logFC Cx3cl1 (Dnmt3a^WT cells, vs H2O): 0.9782
logFC Cxc12 (Dnmt3a^WT cells, vs H2O): −1.129
logFC Cxcl3 (Dnmt3a^WT cells, vs H2O): −0.91
logFC Cyp4f17 (Dnmt3a^WT cells, vs H2O): 0.6547
logFC Dact3 (Dnmt3a^WT cells, vs H2O): 0.6573
logFC Dcstamp (Dnmt3a^WT cells, vs H2O): 0.6406
logFC Ddx60 (Dnmt3a^WT cells, vs H2O): 0.7796
logFC Dhx58 (Dnmt3a^WT cells, vs H2O): 0.8261
logFC Dntt (Dnmt3a^WT cells, vs H2O): −2.827
logFC Dock9 (Dnmt3a^WT cells, vs H2O): −0.589
logFC Dsp (Dnmt3a^WT cells, vs H2O): −0.701
logFC Ebf1 (Dnmt3a^WT cells, vs H2O): −2.106
logFC Ednrb (Dnmt3a^WT cells, vs H2O): −0.653
logFC Efnb2 (Dnmt3a^WT cells, vs H2O): 0.9402
logFC Egr3 (Dnmt3a^WT cells, vs H2O): 0.785
logFC Eno2 (Dnmt3a^WT cells, vs H2O): 0.6638
logFC Epsti1 (Dnmt3a^WT cells, vs H2O): 0.6192
logFC Fam129c (Dnmt3a^WT cells, vs H2O): −0.677
logFC Fam132b (Dnmt3a^WT cells, vs H2O): −0.657
logFC Fktn (Dnmt3a^WT cells, vs H2O): −0.609
logFC Gimap8 (Dnmt3a^WT cells, vs H2O): 0.7417
logFC Gm13152 (Dnmt3a^WT cells, vs H2O): −0.827
logFC Gpr27 (Dnmt3a^WT cells, vs H2O): 0.7663
logFC Grap (Dnmt3a^WT cells, vs H2O): 0.7694
logFC Grasp (Dnmt3a^WT cells, vs H2O): 0.5879
logFC Grin2c (Dnmt3a^WT cells, vs H2O): 0.9953
logFC Grtp1 (Dnmt3a^WT cells, vs H2O): −0.628
logFC Gstt1 (Dnmt3a^WT cells, vs H2O): 1.055
logFC Gzmc (Dnmt3a^WT cells, vs H2O): 2.215
logFC H2-Aa (Dnmt3a^WT cells, vs H2O): 0.9618
logFC H2-Ab1 (Dnmt3a^WT cells, vs H2O): 0.9351
logFC H2-DMb2 (Dnmt3a^WT cells, vs H2O): 0.7028
logFC H2-Eb1 (Dnmt3a^WT cells, vs H2O): 1.049
logFC Hgfac (Dnmt3a^WT cells, vs H2O): 0.647
logFC Hist1h2bj (Dnmt3a^WT cells, vs H2O): 1.326
logFC Hist1h3c (Dnmt3a^WT cells, vs H2O): 0.7275
logFC Hist1h3e (Dnmt3a^WT cells, vs H2O): 1.345
logFC Hist1h4d (Dnmt3a^WT cells, vs H2O): 0.8341
logFC Hivep2 (Dnmt3a^WT cells, vs H2O): 0.787
logFC Hivep3 (Dnmt3a^WT cells, vs H2O): −0.682
logFC Hmga1 (Dnmt3a^WT cells, vs H2O): 0.812
logFC Hsh2d (Dnmt3a^WT cells, vs H2O): 0.6798
logFC Htr7 (Dnmt3a^WT cells, vs H2O): 0.9558
logFC I113 (Dnmt3a^WT cells, vs H2O): 1.008
logFC Ifi27l2a (Dnmt3a^WT cells, vs H2O): 0.8565
logFC Ifi44 (Dnmt3a^WT cells, vs H2O): 0.8977
logFC Ifi204 (Dnmt3a^WT cells, vs H2O): 0.7452
logFC Ifit1 (Dnmt3a^WT cells, vs H2O): 1.338
logFC Ifit3 (Dnmt3a^WT cells, vs H2O): 1.739
logFC Ifit3b (Dnmt3a^WT cells, vs H2O): 1.88
logFC Igll1 (Dnmt3a^WT cells, vs H2O): −2.359
logFC Il1a (Dnmt3a^WT cells, vs H2O): −1.749
logFC Il1b (Dnmt3a^WT cells, vs H2O): −1.155
logFC Il6 (Dnmt3a^WT cells, vs H2O): 0.8099
logFC Irf7 (Dnmt3a^WT cells, vs H2O): 1.151
logFC Irg1 (Dnmt3a^WT cells, vs H2O): −0.846
logFC Isg15 (Dnmt3a^WT cells, vs H2O): 1.268
logFC Jakmip1 (Dnmt3a^WT cells, vs H2O): −0.62
logFC Kcnj5 (Dnmt3a^WT cells, vs H2O): −0.586
logFC Kif19a (Dnmt3a^WT cells, vs H2O): −2.028
logFC Klrd1 (Dnmt3a^WT cells, vs H2O): 0.6629
logFC Kynu (Dnmt3a^WT cells, vs H2O): 0.8281
logFC Lad1 (Dnmt3a^WT cells, vs H2O): 1.447
logFC Lax1 (Dnmt3a^WT cells, vs H2O): −1.106
logFC Lef1 (Dnmt3a^WT cells, vs H2O): −1.83
logFC Lgals3bp (Dnmt3a^WT cells, vs H2O): 0.6079
logFC Lrrc32 (Dnmt3a^WT cells, vs H2O): 0.6455
logFC Lrrc51 (Dnmt3a^WT cells, vs H2O): 0.7656
logFC Ltbp4 (Dnmt3a^WT cells, vs H2O): −0.7
logFC Lynx1 (Dnmt3a^WT cells, vs H2O): 0.6016
logFC Mir6236 (Dnmt3a^WT cells, vs H2O): 1.076
logFC Mir6516 (Dnmt3a^WT cells, vs H2O): 0.6089
logFC Mir8112 (Dnmt3a^WT cells, vs H2O): 0.8138
logFC Mmp14 (Dnmt3a^WT cells, vs H2O): −0.771
logFC Mnda (Dnmt3a^WT cells, vs H2O): 0.9121
logFC Mpl (Dnmt3a^WT cells, vs H2O): −0.631
logFC Ms4a4c (Dnmt3a^WT cells, vs H2O): 1.575
logFC Mx1 (Dnmt3a^WT cells, vs H2O): 0.6985
logFC Mx2 (Dnmt3a^WT cells, vs H2O): 1.416
logFC Mzb1 (Dnmt3a^WT cells, vs H2O): −1.509
logFC Nov (Dnmt3a^WT cells, vs H2O): 0.9714
logFC Nr4a3 (Dnmt3a^WT cells, vs H2O): 0.7772
logFC Oas1a (Dnmt3a^WT cells, vs H2O): 0.8999
logFC Oas1b (Dnmt3a^WT cells, vs H2O): 0.8441
logFC Oas1c (Dnmt3a^WT cells, vs H2O): 0.6578
logFC Oas1g (Dnmt3a^WT cells, vs H2O): 1.142
logFC Oas2 (Dnmt3a^WT cells, vs H2O): 0.966
logFC Oas3 (Dnmt3a^WT cells, vs H2O): 0.864
logFC Oasl1 (Dnmt3a^WT cells, vs H2O): 1.088
logFC Oasl2 (Dnmt3a^WT cells, vs H2O): 1.178
logFC Oit3 (Dnmt3a^WT cells, vs H2O): 0.5873
logFC P4htm (Dnmt3a^WT cells, vs H2O): 0.6018
logFC Parp12 (Dnmt3a^WT cells, vs H2O): 0.7346
logFC Pcbd1 (Dnmt3a^WT cells, vs H2O): −0.601
logFC Pcsk9 (Dnmt3a^WT cells, vs H2O): −0.871
logFC Pdgfb (Dnmt3a^WT cells, vs H2O): 0.647
logFC Perp (Dnmt3a^WT cells, vs H2O): 0.6841
logFC Pglyrp2 (Dnmt3a^WT cells, vs H2O): 0.8355
logFC Phf11b (Dnmt3a^WT cells, vs H2O): 1.046
logFC Plcb1 (Dnmt3a^WT cells, vs H2O): 0.628
logFC Plek2 (Dnmt3a^WT cells, vs H2O): 1.111
logFC Pou2af1 (Dnmt3a^WT cells, vs H2O): −1.979
logFC Ppbp (Dnmt3a^WT cells, vs H2O): 0.6175
logFC Procr (Dnmt3a^WT cells, vs H2O): −0.659
logFC Prok2 (Dnmt3a^WT cells, vs H2O): −0.608
logFC Ptch2 (Dnmt3a^WT cells, vs H2O): −0.695
logFC Ptpn 14 (Dnmt3a^WT cells, vs H2O): −1.123
logFC Ptprn (Dnmt3a^WT cells, vs H2O): 0.7392
logFC Rab17 (Dnmt3a^WT cells, vs H2O): −0.755
logFC Rag1 (Dnmt3a^WT cells, vs H2O): −3.551
logFC Ramp3 (Dnmt3a^WT cells, vs H2O): 0.8948
logFC Rbp1 (Dnmt3a^WT cells, vs H2O): −0.727
logFC Rsad2 (Dnmt3a^WT cells, vs H2O): 1.141
logFC Rsph1 (Dnmt3a^WT cells, vs H2O): −0.696
logFC Rtp4 (Dnmt3a^WT cells, vs H2O): 1.478
logFC Scn4b (Dnmt3a^WT cells, vs H2O): −2.647
logFC Sdc3 (Dnmt3a^WT cells, vs H2O): 0.6166
logFC Siglech (Dnmt3a^WT cells, vs H2O): −0.625
logFC Sirpb1b (Dnmt3a^WT cells, vs H2O): −0.633
logFC Slc25a27 (Dnmt3a^WT cells, vs H2O): −0.715
logFC Slc52a3 (Dnmt3a^WT cells, vs H2O): 0.8162
logFC Slfn4 (Dnmt3a^WT cells, vs H2O): 0.7308
logFC Slfn5 (Dnmt3a^WT cells, vs H2O): 1.407
logFC Slfn8 (Dnmt3a^WT cells, vs H2O): 0.8032
logFC Smim8 (Dnmt3a^WT cells, vs H2O): 0.6316
logFC Smpdl3b (Dnmt3a^WT cells, vs H2O): −0.714
logFC Snhg9 (Dnmt3a^WT cells, vs H2O): −0.7
logFC Spry1 (Dnmt3a^WT cells, vs H2O): 0.6924
logFC Srp54b (Dnmt3a^WT cells, vs H2O): 2.042
logFC St6gal1 (Dnmt3a^WT cells, vs H2O): −0.723
logFC Stbd1 (Dnmt3a^WT cells, vs H2O): 0.7931
logFC Tmem51 (Dnmt3a^WT cells, vs H2O): 0.6591
logFC Tnfrsf9 (Dnmt3a^WT cells, vs H2O): 0.982
logFC Tnfrsf11b (Dnmt3a^WT cells, vs H2O): 3.017
logFC Tnni1 (Dnmt3a^WT cells, vs H2O): 3.17
logFC Traf1 (Dnmt3a^WT cells, vs H2O): 0.6999
logFC Tsku (Dnmt3a^WT cells, vs H2O): −0.836
logFC Tspan13 (Dnmt3a^WT cells, vs H2O): −0.592
logFC Tssk6 (Dnmt3a^WT cells, vs H2O): 0.668
logFC Ube2j2 (Dnmt3a^WT cells, vs H2O): 0.8674
logFC Usp18 (Dnmt3a^WT cells, vs H2O): 1.346
logFC Vpreb1 (Dnmt3a^WT cells, vs H2O): −2.268
logFC Vpreb2 (Dnmt3a^WT cells, vs H2O): −2.096
logFC Vpreb3 (Dnmt3a^WT cells, vs H2O): −2.553
logFC Wdr86 (Dnmt3a^WT cells, vs H2O): 1.035
logFC Xaf1 (Dnmt3a^WT cells, vs H2O): 1.054
logFC Zbp1 (Dnmt3a^WT cells, vs H2O): 1.131
logFC Zbtb37 (Dnmt3a^WT cells, vs H2O): −0.702
logFC Zbtb46 (Dnmt3a^WT cells, vs H2O): 1.256
differentially expressed genes (global transcriptomic analysis) (WT HSPCs): few differentially expressed genes
